Results: patent publication US20020082262A1, “Substituted bicyclic compounds for treating multidrug resistance” (priority 2000, published 2002)

Tested on: NIH-MDR1-G185 cells
Assay: Fluorescent Substrate Accumulation Assay (BODIPY-FL Taxol accumulation)
Type: cell-based
Details: MDR modulator 10 micromolar, BODIPY-FL Taxol 500 nM, 40 min at 37° C.; fluorescence in NIH-MDR1-G185 cells in presence / absence of modulator
Protocol: Fluorescent Substrate Accumulation Assay NIH-MDR1-G185 cells (obtained from M. Gottesman, NIH) were harvested and resuspended in RPMI-1640 containing L-glutamine, 10% Cosmic Calf Serum and penicillin-streptomycin. Cell suspension aliquots of 175 microliters (1×10^5 cells) were added to individual wells of a 96 well microtiter plate and preincubated for 15 min at 37° C. with 20 microliters MDR modulator diluted in cell culture media to give a final concentration of 10 micromolar. Control wells received no modulating agent. BODIPY-FL Taxol (Molecular Probes, Eugene, Oreg.) was added to each well in 10 microliter aliquots to give a final concentration of 500 nM and cells were incubated for 40 min at 37° C. Cells were centrifuged at 100×g for 5 min at 4° C. and the cell pellet washed with 200 microliters cold PBS to remove fluorescent medium from wells. Cells were centrifuged once more, media removed, and cells resuspended in 200 microliters cold PBS. Fluorescence accumulation was measured in a fluorescence plate reader fitted with an excitation filter of 485 nm and an emission filter of 538 nm. BODIPY-FL taxol accumulation in the cells was calculated as follows: Accumulation Index=(fluorescence in NIH-MDR1-G185 cells in the presence of modulator)/(fluorescence in NIH-MDR1-G185 cells in absence of modulator)

Q: “1-[5-Phenyl-2-(3-phenyl-propyl)-pentanoic acid {4-[2-hydroxy-3-(quinolin-5-yloxy)-propyl]-piperazin-4-yl}-amide]piperidine [Example 10]” was tested. Which “Accumulation Index” value did it give?
A: Its value is 8.

Q: `O=C(C(CCCc1ccccc1)CCCc1ccccc1)N1CCN(C2CCN(C[C@@H](O)COc3cccc4ncccc34)CC2)CC1` [Example7, 4-[5-phenyl-2-(3-phenyl-propyl)-pentanoic acid {1-[2-hydroxy-3-(quinolin-5-yloxy)-propyl]-piperazin-4-yl}-amide]piperidine] was tested. Which “Accumulation Index” value did it give?
A: The value was 9.

Q: How did the “Accumulation Index” value turn out when `O=C(C(CCCc1ccccc1)CCCc1ccccc1)N1CCC(NC2CCN(C[C@@H](O)COc3cccc4ncccc34)CC2)CC1` [Example 15] was run?
A: The value was 6.

Q: How did the “Accumulation Index” value turn out when `O=C(CN1CCN(C[C@@H](O)COc2cccc3ncccc23)CC1)NC[C@H]1CC[C@H](C(=O)NC(CCCc2ccccc2)CCCc2ccccc2)CC1` [Example 22, N-{1-[2-(R)-hydroxy-3-(quinolin-5-yloxy)-propyl]-piperazine-4-acetyl}-trans-4-aminomethyl-1-cyclohexanecarboxylic acid [4-phenyl-1-(3-phenyl-propyl)-butyl]-amide] was run?
A: The value was 7.

Q: Which “Accumulation Index” value does the source give for `O=C(CN1CCN(C[C@@H](O)COc2cccc3ncccc23)CC1)N[C@@H](Cc1cccnc1)C(=O)N1CCC(C(=O)NC(CCCc2ccccc2)CCCc2ccccc2)CC1` [Example 27, 1-(N-{1-[2-(R)-hydroxy-3-(quinolin-5-yloxy)-propyl]-piperazine-4-acetyl}-[3-(3-pyridyl)-alanyl])-piperidine-4-carboxylic acid [4-phenyl-1(3-phenyl-propyl)-butyl]-amide] here?
A: The value was 8.
